From BindingDB's records for doi:10.1016/j.ejmech.2019.111853 (Hangzhou Institute of Innovative Medicine, 2020)

Experiments:
[1] = Inhibition of CXCR2-mediated chemotaxis in mouse BAF3 cells
[2] = Antagonist activity at CXCR2 in human neutrophils assessed as reduction in GRO-alpha mediated chemotaxis

Row | IC50 [1] [nM] | IC50 [2] [nM] | SMILES
1 | 0.1 |  | CC[C@@H](Nc1c(Nc2cccc(C(=O)N3CCN4CCC[C@H]4C3)c2O)c(=O)c1=O)c1ccc(C)o1
2 |  | 42 | COC(=O)CSc1ccc(C(=O)Nc2ccc(F)cc2)cn1 [[5-(4-Fluoro-phenylcarbamoyl)-pyridin-2-ylsulfanyl]-acetic acid methyl ester]
